Target: Mitogen-activated protein kinase kinase kinase kinase 1 (Homo sapiens, UniProt Q92918)
Experiment: Biochemical Enzyme Assay: HPK1 biochemical enzyme assay: HPK1 enzyme inhibition was measured using a microfluidic mobility shift assay. […] Test compounds were titrated in ten point curves (top final assay concentration 3 μM), and preincubated with enzyme/substrate mix for 30 min prior to initiation of the reaction by addition of ATP (1 mM final concentration) and substrate (1 μM final concentration; Carna Biosciences) diluted in assay buffer supplemented by MgCl2 (final assay concentration of 5 mM). Following 60 min incubation at RT, the reaction was terminated by addition of 60 µl/well termination buffer (Carna Biosciences) and signal determination using aCaliper EZ Reader (Perkin Elmer, UK).

Sequence of Mitogen-activated protein kinase kinase kinase kinase 1 (Q92918 whole entry): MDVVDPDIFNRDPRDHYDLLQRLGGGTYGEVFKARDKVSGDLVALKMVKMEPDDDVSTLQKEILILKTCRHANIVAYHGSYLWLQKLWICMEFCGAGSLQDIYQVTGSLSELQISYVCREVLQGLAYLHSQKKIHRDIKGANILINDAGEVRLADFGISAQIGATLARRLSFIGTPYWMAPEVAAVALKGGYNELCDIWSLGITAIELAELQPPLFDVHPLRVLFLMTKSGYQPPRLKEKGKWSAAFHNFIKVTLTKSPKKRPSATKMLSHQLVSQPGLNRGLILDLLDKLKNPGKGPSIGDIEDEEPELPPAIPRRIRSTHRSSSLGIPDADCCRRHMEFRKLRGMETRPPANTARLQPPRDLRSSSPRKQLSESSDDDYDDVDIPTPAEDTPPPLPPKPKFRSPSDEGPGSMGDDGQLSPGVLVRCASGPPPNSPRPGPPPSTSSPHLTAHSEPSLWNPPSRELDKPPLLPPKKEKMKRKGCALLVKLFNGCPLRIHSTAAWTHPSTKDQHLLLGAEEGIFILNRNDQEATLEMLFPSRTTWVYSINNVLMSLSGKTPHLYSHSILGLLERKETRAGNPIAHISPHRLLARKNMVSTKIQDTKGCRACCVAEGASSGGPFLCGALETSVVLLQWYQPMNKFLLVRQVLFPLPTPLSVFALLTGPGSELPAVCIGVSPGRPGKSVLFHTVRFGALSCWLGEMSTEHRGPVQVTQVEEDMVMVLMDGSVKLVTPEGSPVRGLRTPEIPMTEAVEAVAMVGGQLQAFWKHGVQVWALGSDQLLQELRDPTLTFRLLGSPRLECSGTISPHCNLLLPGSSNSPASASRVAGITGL

Compound | IC50
Cn1ccc2c(-c3ccc(Nc4ccc(N5CCO[C@@H](C(C)(C)O)C5)cn4)c4c3CNC4=O)ncnc21 | < 100 nM
COC1(CO)CCN(c2ccc(Nc3ccc(-c4cnc5cc(F)ccn45)c4c3C(=O)NC4)nc2)CC1 | < 100 nM
O=C1NCc2c(-c3cnc4cc(C(F)F)ccn34)ccc(Nc3ccc([C@]4(O)CCOC4)cn3)c21 | < 100 nM
Cc1ccn2c(-c3ccc(Nc4ccc(N5CCC[C@@](O)(CN(C)C)C5)cn4)c4c3CNC4=O)cnc2c1F | < 100 nM
COCC1(O)CCN(c2ccc(Nc3ccc(-c4cnc5cc(F)ccn45)c4c3C(=O)NC4)nc2)CC1 | < 100 nM
CC(C)(NC1CC1)C1CN(c2ccc(Nc3ccc(-c4cnc5cc(F)ccn45)c4c3C(=O)NC4)nc2)CCO1 (stereo unspecified) | < 100 nM
CN1CC[C@H](c2ccc(Nc3cnc(-c4ccnc5c4ccn5C)c4c3C(=O)NC4)nc2)CC1=O | < 100 nM
C[C@@H]1CCn2ncc(-c3ccc(Nc4ccc(N5CCN(C)CC5)cn4)c4c3CNC4=O)c2C1 | < 100 nM
Cc1ccn2c(-c3ccc(Nc4ccc(N5CCC[C@](O)(CN(C)C)C5)cn4)c4c3CNC4=O)cnc2c1F | < 100 nM
Cn1ccc2c(-c3ccc(Nc4ccc(N5CCO[C@H](C(C)(C)O)C5)cn4)c4c3CNC4=O)ncnc21 | < 100 nM
CN(C)CCc1nc(Nc2ccc(-c3cnc4cc(F)ccn34)c3c2C(=O)NC3)ccc1[C@@H]1CCOC1 | < 100 nM
O=C1NCc2c(-c3cnc4cc(F)ccn34)ccc(Nc3ccc([C@@]4(O)CCOC4)cn3)c21 | < 100 nM
O=C1NCc2c(-c3cnc4cc(F)ccn34)ccc(Nc3ccc([C@]4(O)CCOC4)cn3)c21 | < 100 nM
O=C1NCc2c(-c3cnc4ccccn34)ncc(Nc3ccc(C4(O)CCOCC4)cn3)c21 | < 100 nM
Cn1ccc2c(-c3ncc(Nc4ccc(N5CCOCC5)cn4)c4c3CNC4=O)ccnc21 | < 100 nM
Cn1ccc2c(-c3ncc(Nc4ccc(N5CCC(C)(O)CC5)cn4)c4c3CNC4=O)ccnc21 | < 100 nM
CN(C)C[C@H]1CN(c2ccc(Nc3ccc(-c4cnc5cc(Cl)ccn45)c4c3C(=O)NC4)nc2)CCO1 | < 100 nM

Results, then the compound that gave them:

IC50 | Compound
< 100 nM | Cc1cc(Nc2ccc(N3CCC(O)CC3)cn2)c2c(c1-c1cccc3c1ccn3C)CNC2=O
< 100 nM | O=C1NCc2c(-c3cnc4ccccn34)ncc(Nc3ccc(N4CC[C@@H](F)[C@H](O)C4)cn3)c21
< 100 nM | CN1CC[C@@H](c2ccc(Nc3cnc(-c4ccnc5c4ccn5C)c4c3C(=O)NC4)nc2)CC1=O
< 100 nM | CN(C)C[C@H]1CN(c2ccc(Nc3cnc(-c4ccnc5c4ccn5C)c4c3C(=O)NC4)nc2)CCO1
< 100 nM | CN(C)C1(c2ccc(Nc3ccc(-c4cnc5cc(F)ccn45)c4c3C(=O)NC4)nc2)CCOCC1
< 100 nM | CN(C)C[C@@H]1CN(c2ccc(Nc3cnc(-c4ccnc5c4ccn5C)c4c3C(=O)NC4)nc2)CCO1
< 100 nM | COc1cc(Nc2ccc(-c3ccnc4c3ccn4C)c3c2C(=O)NC3)ncc1N1CCC(O)CC1
< 100 nM | CN(C)CCc1nc(Nc2ccc(-c3cnc4cc(F)ccn34)c3c2C(=O)NC3)ccc1[C@H]1CCOC1
< 100 nM | CCN(C)Cc1nc(Nc2ccc(-c3cnc4cc(F)ccn34)c3c2C(=O)NC3)ccc1[C@H]1CCOC1

Source: ChEMBL document CHEMBL5728495, “Substituted isoindolin-1-ones and 2,3-dihydro-1h-pyrrolo[3,4-c]pyridin-1-ones as HPK1 antagonists” (2021)
